Test results: BigSolDB 2.1

Nc1cc(C(=O)O)ccc1C(=O)O
solubility (mole fraction)
Details	in ethanol	in isopentanol	in isopropanol	in methanol	in n-butanol	in n-propanol	in sec-butanol	in tert-butanol
303.15 K	0.0349	0.00536	0.0211	0.0685	0.00721	–	0.00989	0.0216
303.25 K	–	–	–	–	–	0.0137	–	–
308.15 K	0.0383	0.00583	0.0236	–	0.00854	–	0.0119	0.0237
308.75 K	–	–	–	–	–	0.0165	–	–
313.15 K	0.0422	0.00643	–	0.0794	0.0098	–	0.0139	0.0268
313.75 K	–	–	–	–	–	0.0193	–	–
318.15 K	0.0461	–	0.0293	0.0853	0.0112	0.0223	–	0.0293
323.15 K	0.051	0.00764	0.0326	0.0917	0.0131	0.0256	0.0192	0.0315
328.15 K	0.0552	–	–	0.0982	–	0.0293	0.0222	0.0351
333.15 K	0.06	0.00895	–	0.105	0.0168	0.0334	–	0.0375
338.15 K	0.0655	0.00972	0.0441	0.112	0.0189	0.0392	0.0297	0.0421
